From ChEMBL document CHEMBL1201862, “PubChem BioAssay data set” (2004)
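How tested: cells in 96-well plates exposed to compound for 48 hours at five concentrations. GI50 marks 50% less growth.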 Activity calls are given as the source filed them. No stated cut-off is given here; in the data, active = GI50 up to about 1.1 µM and inactive = higher.

Columns and labels:
Experiment in all cases: NCI anticancer screen, dose series, 48 h
A549 = system: A549
ACHN = system: ACHN
DLD-1 = system: DLD-1
DMS-114 = system: DMS-114
DMS-273 = system: DMS-273
Hs-578T = system: Hs-578T
KM-20L2 = system: KM-20L2
M14 = system: M14
MDA-MB-231 = system: MDA-MB-231
MDA-MB-435 = system: MDA-MB-435
MDA-N = system: MDA-N
NCI-H460 = system: NCI-H460
PC-3 = system: PC-3
SF-539 = system: SF-539
SNB-75 = system: SNB-75
SR = system: SR
T47D = system: T47D
UACC-62 = system: UACC-62
CAKI-1 = system: CAKI-1
OVCAR-5 = system: OVCAR-5

Row | Structure (SMILES) | GI50 (A549) | GI50 (ACHN) | GI50 (DLD-1) | GI50 (DMS-114) | GI50 (DMS-273) | GI50 (Hs-578T) | GI50 (KM-20L2) | GI50 (M14) | GI50 (MDA-MB-231) | GI50 (MDA-MB-435) | GI50 (MDA-N) | GI50 (NCI-H460) | GI50 (PC-3) | GI50 (SF-539) | GI50 (SNB-75) | GI50 (SR) | GI50 (T47D) | GI50 (UACC-62) | GI50 (CAKI-1) | GI50 (OVCAR-5)
1 | CC(/C=N/N=C(N)N)=N\N=C(N)N | 61.9 µM (inactive) | 22.8 µM (inactive) | 48.9 µM (inactive) | 16.8 µM (inactive) | 31.6 µM (inactive) | 33.2 µM (inactive) | 12.8 µM (inactive) | 43.6 µM (inactive) | 22.6 µM (inactive) | 12.9 µM (inactive) | 15.2 µM (inactive) | 8.97 µM (inactive) | 232 µM (inactive) | 8.04 µM (inactive) | 25.2 µM (inactive) | > 57.3 µM (inactive) | 1.91 µM (inactive) | 46.6 µM (inactive) | – | –
2 | COc1cc(C(C)O)c(S(=O)(=O)CC(C)O)nn1 (stereo unspecified) | > 100 µM (inactive) | > 100 µM (inactive) | – | – | – | > 100 µM (inactive) | – | > 100 µM (inactive) | – | > 100 µM (inactive) | > 100 µM (inactive) | > 100 µM (inactive) | – | > 100 µM (inactive) | – | 43.6 µM (inactive) | – | > 100 µM (inactive) | > 100 µM (inactive) | > 100 µM (inactive)
3 | CC1=CC2c3cccc4[nH]cc(c34)CC2N(C)C1 (stereo unspecified) | > 100 µM (inactive) | – | > 37.8 µM (inactive) | 51.2 µM (inactive) | > 100 µM (inactive) | – | > 76.2 µM (inactive) | – | – | – | – | 56.5 µM (inactive) | – | > 100 µM (inactive) | 38.5 µM (inactive) | – | – | > 91.8 µM (inactive) | 66.7 µM (inactive) | > 100 µM (inactive)
4 | CC1=C[C@]2(CC(C)C3C(CC4(C)C5CCC6C(C)(C)C(=O)CC[C@@]67C[C@@]57CC[C@]34C)O2)OC1=O (stereo partly specified) | 16.6 µM (inactive) | 24.6 µM (inactive) | 11 µM (inactive) | 3.81 µM (inactive) | 3.95 µM (inactive) | – | – | 47.3 µM (inactive) | – | – | – | 19.4 µM (inactive) | – | 13.8 µM (inactive) | 16.8 µM (inactive) | 3.82 µM (inactive) | – | – | 16.9 µM (inactive) | 2.21 µM (inactive)
5 | CCOC(C)OC1CC(n2cc(C)c(=O)[nH]c2=O)OC1CO (stereo unspecified) | > 100 µM (inactive) | > 100 µM (inactive) | > 100 µM (inactive) | > 100 µM (inactive) | > 100 µM (inactive) | – | > 100 µM (inactive) | > 100 µM (inactive) | – | – | – | > 100 µM (inactive) | – | > 100 µM (inactive) | – | > 100 µM (inactive) | – | – | – | > 100 µM (inactive)
6 | COC1C(O)CC(OC2CC(Oc3cc4cc5c(c(O)c4c(O)c3C)C(=O)[C@@H](OC3CC(OC4CC(OC6CC(C)(O)C(OC(C)=O)C(C)O6)C(O)C(C)O4)C(O)C(C)O3)[C@H]([C@H](OC)C(=O)[C@@H](O)[C@@H](C)O)C5)OC(C)C2OC(C)=O)OC1C (stereo partly specified) [CHROMOMYCIN] | 0.00382 µM (active) | 4.71e-05 µM (active) | 0.00849 µM (active) | 2.14e-05 µM (active) | – | 2.13e-05 µM (active) | 0.00397 µM (active) | – | 3e-05 µM (active) | 2.44e-05 µM (active) | 3.15e-05 µM (active) | < 0.0133 µM (active) | 3.57e-05 µM (active) | 0.00326 µM (active) | < 0.01 µM (active) | < 0.01 µM (active) | < 0.01 µM (active) | 0.00295 µM (active) | < 0.01 µM (active) | < 0.01 µM (active)
7 | Nc1ncc2c(n1)-c1ccccc1OC2 | > 100 µM (inactive) | – | > 100 µM (inactive) | > 100 µM (inactive) | > 80.5 µM (inactive) | – | > 100 µM (inactive) | – | – | – | – | > 100 µM (inactive) | – | > 100 µM (inactive) | 22.6 µM (inactive) | – | – | 55.7 µM (inactive) | – | > 100 µM (inactive)
8 | O=S(=O)(O)c1cc2ccc1/C=C\c1ccc(cc1S(=O)(=O)O)/N=N\c1ccc(c(S(=O)(=O)O)c1)/C=C\c1ccc(cc1S(=O)(=O)O)/N=N\2 | > 100 µM (inactive) | – | > 100 µM (inactive) | – | > 100 µM (inactive) | – | > 100 µM (inactive) | – | – | – | – | > 100 µM (inactive) | – | > 100 µM (inactive) | > 100 µM (inactive) | – | – | > 100 µM (inactive) | – | > 100 µM (inactive)
9 | COc1cc([C@@H]2c3cc4c(c(O[C@@H]5O[C@H]6CO[C@@H](C)O[C@H]6[C@H](O)[C@@H]5O)c3C[C@H]3COC(=O)[C@@H]32)OCO4)cc(OC)c1O | 10.9 µM (inactive) | – | 27.7 µM (inactive) | 3.79 µM (inactive) | 4.63 µM (inactive) | – | 34.9 µM (inactive) | – | – | – | – | 12.1 µM (inactive) | – | 2.81 µM (inactive) | 5.32 µM (inactive) | – | – | 4.8 µM (inactive) | – | 97.1 µM (inactive)
